Measured values taken from US20250327133A1, “USE OF SRE-PTPRZ1 INHIBITOR IN PREPARATION OF DRUG FOR TREATING SQUAMOUS CELL CARCINOMA” (WEST CHINA HOSPITAL, SICHUAN UNIVERSITY, priority 2022, published 2025).
Blank lines part the entries; values can stand above or below the compound they belong to.

Assays:
[1] = test system: glioma cell line U251; experiment: CCK8 cell growth inhibition by NAZ2329, U251; assay type: cell-based; conditions: 5-70 μM, 72 hours
Procedure: (§1) The CCK8 method was used to detect the inhibition rate of PTPRZ1 inhibitor NAZ2329 on cell growth. 5 strains of human Lung-LUSC cells, one strain of human normal lung epithelial cell BEAS-2B, and one strain of highly expressed PTPRZ1 cell line U251 (High expression of PTPRZ1 gene in glioma cells) were used in this experiment for detection. Each cell line was inoculated into a 96-well plate at a density of 8000 cells/well, and cultured for 18 h. Then, 100 μL of NAZ2329 solution was added to the test wells at final concentrations of 5 μM, 10 μM, 20 μM, 30 μM, 40 μM, 50 μM, 60 μM, and 70 μM, while 100 μL of medium was added to the blank control well. After 72 hours of drug treatment, 20 μL of CCK8 was added in proportion and incubated for 2 h. The absorbance value was measured at 450 nm and the inhibition rate curve was plotted.

[2] = test system: human normal lung epithelial cell BEAS-2B; experiment: CCK8 cell growth inhibition by NAZ2329, BEAS-2B; assay type: cell-based; conditions: 5-70 μM, 72 hours
Procedure: as §1

[3] = test system: human Lung-LUSC cells; experiment: CCK8 cell growth inhibition by NAZ2329, Lung-LUSC cells; assay type: cell-based; conditions: 5-70 μM, 72 hours
Procedure: as §1

[4] = test system: human Lung LUAD cell line; experiment: CCK8 cell proliferation, MY33-3, lung adenocarcinoma cell line; assay type: cell-based; conditions: one human Lung LUAD cell line; 72 hours
Procedure: (§2) The CCK8 method was used to detect the effect of PTPRZ1 inhibitor MY33-3 on cell proliferation. 7 strains of human Lung-LUSC cells, one strain of human lung adenocarcinoma cell, one strain of human normal lung epithelial cell BEAS-2B, and one strain of PTPRZ1 high expressing cell line U251 (high expression of PTPRZ1 gene in glioma cells) were used in this experiment for detection. Each cell line was inoculated into a 96-well plate at a density of 6000 cells/well, cultured for 24 hours, and then 100 μL of MY33-3 working solution was added to the test wells at final concentrations of 0 μM, 1 μM, 2 μM, 4 μM, 8 μM, 16 μM, 32 μM, and 64 μM, while 100 μL of medium was added to the blank control well. After 72 hours of drug treatment, 20 μL of CCK8 was added in proportion and incubated for 1 hour. The absorbance value was measured at 450 nm, and the IC50 values of MY33-3 against different cells were plotted.

[5] = test system: human normal lung epithelial cell line BEAS-2B; experiment: CCK8 cell proliferation, MY33-3, BEAS-2B; assay type: cell-based; conditions: 72 hours
Procedure: as §2

[6] = test system: human Lung-LUSC (H520) cells; experiment: Subcutaneous tumor formation in nude mice (H520); assay type: in vivo, BALB/c-nu mice; conditions: for tumor size compared with the model group / tumor volume compared with the model group: after 21 days of administration
Procedure: At the animal level, the method of subcutaneous tumor formation in nude mice was used to verify the therapeutic effect of the inhibitor MY33-3 on the tumor formation of human Lung-LUSC (H520) cells. Firstly, 30 of 4W BALB/c-nu mice were purchased from GemPharmatech and acclimated for 3 days. Then, 150 μL of pre-prepared H520 cells was injected subcutaneously into the right forelimb of nude mice at 8×10^6 cells/mouse. After 7 days, the tumor growth of each nude mouse was observed, and the mice were grouped and received drugs when the tumor grew to 100 mm^3. Mice were divided into the blank group, the model group, the low-dose group, and the high-dose group, with 7 mice in each group. Meanwhile, the inhibitor MY33-3 was administered at doses of 20 mg/kg (low-dose group) and 100 mg/kg (high-dose group) once every 2 days, and the changes in tumor growth were recorded using a vernier caliper. Then, after 21 days of administration, samples were collected, and the therapeutic effect of the inhibitor MY33-3 on human Lung-LUSC cells was evaluated using indicators such as tumor volume, tumor weight, and nude mouse weight.

[7] = test system: human Lung-LUSC cell lines; experiment: CCK8 cell proliferation, MY33-3, Lung-LUSC cell lines; assay type: cell-based; conditions: 7 human Lung LUSC cell lines; 72 hours
Procedure: as §2

[8] = test system: PTPRZ1 glioma cell line U251; experiment: CCK8 cell proliferation, MY33-3, U251; assay type: cell-based; conditions: Homo sapiens, U-251, 72 hours
Procedure: as §2

[9] = test system: H520 cells; experiment: CCK8 cell survival, MY-10, H520; assay type: cell-based, human; conditions: 72 hours
Procedure: (§3) The CCK8 method was used to detect the effect of the PTPRZ1 inhibitor MY-10 on cell proliferation. 3 human Lung-LUSC cells and one PTPRZ1 high expression cell line U251 (high expression of PTPRZ1 gene in glioma cells) were used in this experiment for detection. Each cell line was inoculated into a 96-well plate at a density of 5000 cells/well, cultured for 24 hours, and then 100 μL of MY-10 working solution was added at final concentrations of 0 μM, 1 μM, 2 μM, […], 6 μM, and […] to the test wells, while 100 μL of medium was added to the blank control well. After 72 hours of drug treatment, 20 μL of CCK8 was added in proportion, followed by incubating for 1 h. The absorbance value was measured at 450 nm, and the survival rates of MY-10 against different Lung-LUSC cells were plotted.

[10] = test system: LK-2; experiment: CCK8 cell survival, MY-10, LK-2; assay type: cell-based, human; conditions: 0-8 μM, 72 hours
Procedure: as §3

[11] = test system: H1703; experiment: CCK8 cell survival, MY-10, H1703; assay type: cell-based, human; conditions: 0-8 μM, 72 hours
Procedure: as §3

[12] = test system: PTPRZ1 glioma cell line (U251); experiment: CCK8 cell survival, MY-10, U251; assay type: cell-based; conditions: 0-8 μM, 72 hours
Procedure: as §3

SMILES: CCOc1ccc(C(F)(F)F)cc1CSc1ccsc1C(=O)NS(=O)(=O)c1ccccc1 [NAZ2329]
cell growth with increasing treatment concentration [1]: inhibited | cell growth with increasing treatment concentration [2]: inhibited | growth inhibition rate on cell growth ([3]; 4 strains of Lung-LUSC cells, compared with BEAS-2B and U251): significantly higher than that of human normal lung epithelial cells BEAS-2B and glioma cell line U251 | cell growth with increasing treatment concentration ([3]; Lung-LUSC cells): inhibited

IC50 [4]: 25 µM | weight of nude mice versus model group ([6]; high-dose group 100 mg/kg): no significant difference | weight of nude mice versus model group ([6]; low-dose group 20 mg/kg): no significant difference | IC50 [8]: 33 µM
SMILES: FC(F)(F)Sc1ccc(CNCc2ccc(SC(F)(F)F)cc2)cc1 [MY33-3]
IC50 [5]: 28 µM | inhibitory effect on tumorigenicity of H520 cells ([6]; dose of 20 mg/kg): good inhibitory effect | tumor size compared with the model group ([6]; high-dose group 100 mg/kg once every 2 days): significantly decreased | tumor volume compared with the model group ([6]; high-dose group 100 mg/kg): more significantly decreased | tumor size compared with the model group ([6]; low-dose group 20 mg/kg once every 2 days): significantly decreased | tumor volume compared with the model group ([6]; low-dose group 20 mg/kg): more significantly decreased | IC50 [7]: < 16 µM

SMILES: FC(F)(F)Sc1ccc(CCCOc2ccc(SC(F)(F)F)cc2)cc1 [MY-10]
inhibitory effect with increasing concentrations ([9]; H520, 0-8 μM): significant inhibitory effects | IC50 ([9]; Homo sapiens, NCI-H520, H520 cells, read-out: IC50 (survival rate)): ~4 µM | inhibitory effect with increasing concentrations [10]: significant inhibitory effects | inhibitory effect with increasing concentrations [11]: significant inhibitory effects | inhibitory effect with increasing concentrations [12]: significant inhibitory effects
